Data as given in patent US6340694B1, “Diarylbenzopyran derivatives as cyclooxygenase-2 inhibitors” (Pacific Corporation, priority 1998, dated 2002).

Assays:
COX-2 = biological target: T1, COX-2 (Mus musculus, UniProt Q05769); experiment: Evaluation of COX-2's inhibition efficacy (PGE2 radioimmuno assay, LPS-induced, aspirin-pretreated peritoneal macrophages); assay type: cell-based, C57BL/6 mouse; conditions: for inhibition at 0.1 µg/mL: 0.1 μg/ml; for inhibition at 1 µg/mL: 1 μg/ml; for inhibition at 10 µg/mL: 10 μg/ml
T1 construct: endogenous in cells; host or cells: peritoneal macrophages of C57BL/6 mouse, aspirin-pretreated, LPS-induced
T1 sequence (Q05769 18-604): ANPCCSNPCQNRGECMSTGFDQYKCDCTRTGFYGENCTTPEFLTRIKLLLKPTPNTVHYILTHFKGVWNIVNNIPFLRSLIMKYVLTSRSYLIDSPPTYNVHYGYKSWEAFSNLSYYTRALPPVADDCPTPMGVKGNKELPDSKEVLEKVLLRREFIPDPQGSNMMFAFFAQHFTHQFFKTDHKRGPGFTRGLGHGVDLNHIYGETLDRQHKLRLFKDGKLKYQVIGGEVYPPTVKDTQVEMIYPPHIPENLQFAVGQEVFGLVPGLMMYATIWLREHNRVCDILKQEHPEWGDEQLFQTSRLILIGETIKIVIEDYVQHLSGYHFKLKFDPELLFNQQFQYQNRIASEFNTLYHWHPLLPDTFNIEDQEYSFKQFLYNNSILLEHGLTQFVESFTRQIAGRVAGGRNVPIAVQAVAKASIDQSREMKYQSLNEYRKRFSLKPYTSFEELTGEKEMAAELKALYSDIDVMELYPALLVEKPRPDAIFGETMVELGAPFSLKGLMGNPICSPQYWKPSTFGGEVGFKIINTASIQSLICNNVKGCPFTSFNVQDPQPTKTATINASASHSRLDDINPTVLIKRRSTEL
Procedure, shortened: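 C57BL/6 mouse peritoneal macrophages, adhered 2 h at 37 °C, were LPS-stimulated to induce COX-2. Cells were then treated 10 min with compound, followed by 10 min with 10 μM arachidonic acid (final). PGE2 in the supernatant was quantified by radioimmunoassay.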

COX-1 = biological target: T2, COX-1 (Mus musculus, UniProt P22437); experiment: Evaluation of COX-1's inhibition efficacy (macrophages without aspirin and LPS pre-treatment); assay type: cell-based, C57BL/6 mouse; conditions: 10 μg/ml
T2 construct: there is no pre-treatment of aspirin and LPS in the adhesion of macrophage; endogenous in cells; host or cells: peritoneal macrophages of C57BL/6 mouse, without aspirin and LPS pre-treatment
T2 sequence (P22437 27-602): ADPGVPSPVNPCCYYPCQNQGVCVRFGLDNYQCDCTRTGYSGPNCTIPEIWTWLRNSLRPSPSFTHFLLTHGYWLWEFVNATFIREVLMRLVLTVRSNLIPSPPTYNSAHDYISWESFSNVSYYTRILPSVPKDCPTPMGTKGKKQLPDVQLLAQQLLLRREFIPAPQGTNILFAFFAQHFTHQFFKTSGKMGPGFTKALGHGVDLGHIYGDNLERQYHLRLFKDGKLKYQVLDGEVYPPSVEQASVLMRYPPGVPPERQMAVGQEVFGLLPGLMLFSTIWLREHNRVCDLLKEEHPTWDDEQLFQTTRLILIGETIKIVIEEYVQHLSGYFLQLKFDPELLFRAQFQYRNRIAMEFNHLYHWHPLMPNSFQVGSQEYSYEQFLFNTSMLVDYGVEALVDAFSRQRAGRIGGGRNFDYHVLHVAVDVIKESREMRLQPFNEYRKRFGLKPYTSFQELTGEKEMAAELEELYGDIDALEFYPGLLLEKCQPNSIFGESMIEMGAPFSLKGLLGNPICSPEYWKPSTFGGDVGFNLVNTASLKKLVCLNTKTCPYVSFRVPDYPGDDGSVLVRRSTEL
Procedure, shortened: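 C57BL/6 mouse peritoneal macrophages (1×10^6 cells/mL) were adhered for 2 h at 37° C without aspirin or LPS pretreatment. Compound was given for 10 min at 37° C, then arachidonic acid (10 μM final) for 10 min. Supernatant PGE2 was measured by radioimmunoassay, with 100% activity set as PGE2 with versus without arachidonic acid.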

edema in mouse's ear = experiment: Depressant action on edema in mouse's ear (TPA-induced, myeloperoxidase); assay type: in vivo, ICR mouse; conditions: topical on ear, TPA 25 μg, 5 hours
Method: (§1) Regarding the compounds in some of the above Examples and indomethacin, depressant action on edema in mouse's ear and depressant action on edema in mouse's foot being induced by carrageenan are being measured by the following 2 methods. And the results of the depressant action on edema in mouse's ear and depressant action on edema in mouse's foot being induced by carrageenan are shown in Table 5.
1. Measurement of Depressant Action on Edama in Mouse's Ear
At 30 minutes after coating the left ear of ICR mouse, weighing 20 g, with a solution of appropriate amount of sample in 20 μl of mixed solvent DMSO:acetone(1:9), 25 μg of TPA(tetradecanoylphorbol acetate) was coated on both ears. The determination of depressant action on edama was made in 5 hours later by the number of neutral granulocyte gathering in the ear after inducing TPA inflammation. The number of neutral granulocyte was estimated by measuring the activation of myeloperoxidase.

[1] = test system: edema in mouse's foot induced by carrageenan; experiment: Depressant action on edema in mouse's foot induced by carrageenan; assay type: in vivo, Male Sprague-Dawley rat; conditions: po; for inhibition in vivo at 50 mg/kg: 50 mg/kg p.o.; for inhibition in vivo at 30 mg/kg: 30 mg/kg p.o.
Method: as §1
2. Measurement of Depressant Action on Edama in Mouse's Foot Induced by Carrageenan
At 1 hour after oral administering to Male-Sprague-Dawley-white mouse, weighing 150˜200 g, with a suspended solution of appropriate amount of sample in 0.5% of carboxymethyl cellulose and 0.2% of TWEN solution, edema on the right foot of mouse was induced by injecting 0.1 ml(1%) of carrageenan-saline solution. Right after the inducement of edema by carrageenan and 3 hours later, the edema rate was estimated by measuring white mouse's foot volume with Displacement Plethysmometer(Ugo Basile, Italy). Carrageenan injection Drug was administered 1 hour before the carrageenan injection. Depressant rate of edema is produced by the following equation 1.
% Depressant rate of edema=(1 ? Vtreated group/ ? Vcontrol group)×100 ? V: change of foot volume [Equation 1]

[2] = 3 h, read-out: depressant rate of edema rate induced by carrageenan (oral administration), % depression

inhibition at 0.1 µg/mL (COX-2) [%] | inhibition at 1 µg/mL (COX-2) [%] | inhibition at 10 µg/mL (COX-1) [%] | inhibition at 10 µg/mL (COX-2) [%] | melting point [°C] | Structure (SMILES) | depressant rate of ear edema, ED50 (edema in mouse's ear) | inhibition in vivo at 50 mg/kg [1, 2] [%] | inhibition in vivo at 30 mg/kg [1, 2] [%] | inhibition in vivo at 3 mg/kg ([1]; 3 h, 3 mg/kg p.o., read-out: depressant rate of edema rate induced by carrageenan (oral administration), % depression) [%] | ED50 ([1]; 3 hours after carrageenan, read-out: depressant rate of edema rate induced by carrageenan (oral administration), ED50) [mg/kg]
94 | 100 | < 5 | – | – | CS(=O)(=O)c1ccc(-c2oc3ccccc3c(=O)c2-c2ccc(F)cc2)cc1 [Example 1, 3-(4-Fluorophenyl)-2-(4-(methylsulfonyl)phenyl)-4H-1-benzo-pyran-4-one] | 0.4 mg/ear, ED50 | 43 | – | – | –
13 | 61 | – | 72 | 225 | Cc1ccc(-c2c(-c3ccc(S(C)(=O)=O)cc3)oc3ccccc3c2=O)cc1 [Example 3, 3-(4-Methylphenyl)-2-(4-(methylsulfonyl)phenyl)-4H-1-benzopyran-4-one] | 1.2 mg/ear, ED50 | 52 | – | – | –
46 | 89 | < 5 | – | 164 to 165 | CS(=O)(=O)c1ccc(-c2oc3ccccc3c(=O)c2-c2ccc(Cl)c(Cl)c2)cc1 [Example 11, 3-(3,4-Dichlorophenyl)-2-(4-(methylsulfonyl)phenyl)-4H-1-benzopyran-4-one] | – | – | 17 | – | –
– | 83 | 13 | 90 | 220 to 221 | CS(=O)(=O)c1ccc(-c2oc3ccccc3c(=O)c2-c2cccnc2)cc1 [Example 15, 2-(4-(Methylsulfonyl)phenyl)-3-(3-pyridinyl)-4H-1-benzopyran-4-one] | – | – | 41 | – | –
– | 66 | 12 | 78 | – | CS(=O)(=O)c1ccc(-c2oc3ccc(F)cc3c(=O)c2-c2cccnc2)cc1 [Example 34, 6-Fluoro-2-(4-(methylsulfonyl)phenyl)-3-(3-pyridinyl)-4H-1-benzopyran-4-one] | – | – | – | 23 | –
47 | 76 | < 5 | 88 | 204 to 206 | CS(=O)(=O)c1ccc(-c2oc3ccccc3c(=S)c2-c2ccccc2)cc1 [Example 37, 2-(4-(Methylsulfonyl)phenyl)-3-phenyl-4H-1-benzopyran-4-thione] | – | – | 16 | – | –

The remaining lines, values behind:

Structure (SMILES) | inhibition at 0.1 µg/mL (COX-2) [%] | inhibition at 1 µg/mL (COX-2) [%] | inhibition at 10 µg/mL (COX-1) [%] | inhibition at 10 µg/mL (COX-2) [%] | melting point [°C] | depressant rate of ear edema, ED50 (edema in mouse's ear) | inhibition in vivo at 50 mg/kg [1, 2] [%] | inhibition in vivo at 30 mg/kg [1, 2] [%] | inhibition in vivo at 3 mg/kg ([1]; 3 h, 3 mg/kg p.o., read-out: depressant rate of edema rate induced by carrageenan (oral administration), % depression) [%] | ED50 ([1]; 3 hours after carrageenan, read-out: depressant rate of edema rate induced by carrageenan (oral administration), ED50) [mg/kg]
COc1ccc(-c2c(-c3ccc(S(C)(=O)=O)cc3)oc3ccccc3c2=O)cc1 [Example 10, 3-(4-Methoxyphenyl)-2-(4-(methylsulfonyl)phenyl)-4H-1-benzopyran-4-one] | 14 | 67 | < 5 | 86 | 212 to 213 | 0.6 mg/ear, ED50 | – | – | – | –
CS(=O)(=O)c1ccc(-c2oc3ccccc3c(=O)c2-c2ccccc2F)cc1 [Example 12, 3-(2-Fluorophenyl)-2-(4-(methylsulfonyl)phenyl)-4H-1-benzopyran-4-one] | – | – | – | – | – | 0.4 mg/ear, ED50 | – | 20 | – | –
CS(=O)(=O)c1ccc(-c2oc3ccccc3c(=O)c2-c2ccc(F)c(Cl)c2)cc1 [Example 26, 3-(3-Chloro-4-fluorophenyl)-2-(4-(methylsulfonyl)phenyl)-4H-1-benzopyran-4-one] | – | – | – | – | – | 0.6 mg/ear, ED50 | 23 | – | – | –
CS(=O)(=O)c1ccc(-c2oc3ccccc3c(=O)c2-c2ccc(Br)cc2)cc1 [Example 28, 3-(4-Bromophenyl)-2-(4-(methylsulfonyl)phenyl)-4H-1-benzopyran-4-one] | – | – | – | – | – | 0.8 mg/ear, ED50 | – | – | – | –
CS(=O)(=O)c1ccc(-c2oc3ccccc3c(=S)c2-c2ccc(F)cc2)cc1 [Example 36, 3-(4-Fluorophenyl)-2-(4-(methylsulfonyl)phenyl)-4H-1-benzopyran-4-thione] | 56 | 80 | < 5 | 100 | – | 1.0 mg/ear, ED50 | – | 20 | – | –
COc1ccc2c(c1)c(CC(=O)O)c(C)n2C(=O)c1ccc(Cl)cc1 [indomethacine, reference compound] | – | – | – | – | – | 0.4 mg/ear, ED50 | – | – | – | 4.3
